Reference: US20250288536A1, “PROTEIN PARTICLES INCLUDING AN ACTIVE AGENT AND METHODS OF MAKING AND USING THE SAME” (Dairy Mangement Inc., priority 2022, published 2025)
Where two headings read alike, the source gives them in different places.

What was measured:
[1] = Particle size by DLS before and after ultrasonication (Example 2); settings: after ultrasonication
[2] = Scanning electron microscopy (SEM) particle size; settings: 1 mg/mL dispersion

Row | Compound | colloidal dispersion stability when adjusting pH to 7 [1] | change of antioxidant activity (ABTS) with HPH treatment (0.01 mg/mL) | ABTS radical scavenging activity (concentration above 0.1 mg/mL) | particle size by SEM (dry state) ([2]; HPH sample) [nm] | particle size by SEM (dry state) ([2]; NOHPH sample) [nm] | change of antioxidant activity (ABTS) with HPH treatment (after vs before HPH) | ABTS radical scavenging activity (concentration of 0.5 mg/mL) [%]
1 | N[C@@H](Cc1c[nH]c2ccccc12)C(=O)O [Trp, tryptophan] | remained stable | increased | around 100% | – | – | – | –
2 | α-lactalbumin | – | – | – | ~80 | ~40 | increased | 20
